According to patent US20190240184A1, “PHARMACEUTICAL APPLICATIONS FOR (S)-N[…] SALTS THEREOF” (NATIONAL UNIVERSITY CORPORATION CHIBA UNIVERSITY, priority 2016, published 2019):

Assays:
normal mice [1] = test: Hyperlocomotion test (side effects); settings: for time after administration at which enhanced amount of locomotion returned to a normal value: ketamine 10 mg/kg, norketamine 20 mg/kg, (S)-ketamine 10 mg/kg
normal mice [2] = test: Prepulse inhibition test (side effects)
LPS-treated mice [3] = test: Tail suspension test (TST) in LPS-induced inflammatory model of depression; settings: for immobility time in TST: TST 3 h after
LPS-treated mice [4] = test: Forced swimming test (FST) in LPS-induced inflammatory model of depression; settings: for immobility time in FST: FST 5 h after
[5] = tested on: social defeat stress mice; test: Tail suspension test (TST) in social defeat stress model of depression; type: in vivo; settings: 10 mg/kg intraperitoneally; for immobility time in TST: single administration
Method: (§1) The TST was performed as follows. […] The FST was performed as follows. […] The LMT was performed as follows. […] The SPT was performed as follows.

[6] = tested on: social defeat stress mice; test: Forced swimming test (FST) in social defeat stress model of depression; type: in vivo; settings: 10 mg/kg intraperitoneally; for immobility time in FST: single administration
Method: as §1

[7] = tested on: social defeat stress mice; test: Golgi staining, spine density in brain regions of social defeat stress mice; type: in vivo; settings: 10 mg/kg intraperitoneally, eight days after administration
[8] = tested on: social defeat stress mice; test: 1% sucrose preference test (SPT) in social defeat stress model of depression; settings: 10 mg/kg intraperitoneally, seven days after administration
normal mice [9] = test: Conditioned place preference test (CPP) (side effects); settings: 20 mg/kg; vs saline
[10] = Plasma concentration of (S)-norketamine after peroral administration of (S)-norketamine derivative; type: in vivo; settings: mice; 30 mg/kg perorally; 15 min to 8 h
Method: The pharmacokinetic profile of an (S)-norketamine derivative was investigated through measurement of the blood concentration of (S)-norketamine after administration thereof.
The obtained blood plasma was placed into a polypropylene microtube and stored in a freezer at −80° C.
The plasma concentration of (S)-norketamine was measured by the method described below.
STD (standard) solution (10 μL) was added to mouse plasma (20 μL) as a calibration curve sample. A mixture of acetonitrile/water (1:1, v/v) was added to a sample, a blank sample, and a QC (quality control) sample.
Agitation was performed for 10 seconds, and I.S. (internal standard) solution (Norketamine-D4: 10 ng/mL) (100 μL) was added. A mixture of acetonitrile and methanol (=9:1) was added to the blank sample.
Agitation was performed for 30 seconds, followed by centrifugation at room temperature and 16,000×g for three minutes. The supernatant (80 μL) was transferred to a new microtube, and 0.001 mol/L ammonium hydrogen carbonate (100 μL) was added to the microtube.
Agitation was performed for 10 seconds, followed by centrifugation at room temperature and 16,000×g for two minutes.
The (S)-norketamine concentration was measured through HPLC.
The measurement conditions are as follows.

NMDA receptor = settings: Non-Patent Document 12; cited from earlier work
[11] = 10 mg/kg intraperitoneally, vs LPS-treated mice administered saline
[12] = 10 mg/kg each, intraperitoneally
[13] = 5, 10, or 20 mg/kg intraperitoneally 23 h after LPS

SMILES	time after administration at which enhanced amount of locomotion returned to a normal value (normal mice [1])	immobility time in TST (LPS-treated mice [3]; [11])	immobility time in FST (LPS-treated mice [4]; [11])	immobility time in TST [5]	immobility time in FST [6]	spine density in frontal cortex (prelimbic region), hippocampus CA3 region and hippocampal dentate gyrus [7]	spine density in nucleus accumbens (core region and shell region) [7]	sucrose consumption preference in SPT [8]	CPP score (conditioned place preference, drug dependence) (normal mice [9])	also measured
CNC1(c2ccccc2Cl)CCCCC1=O (racemic) [ketamine]	20 min	significantly reduced immobility time	significantly reduced immobility time							amount of locomotion (hyperlocomotion effect) (normal mice [1]; 10 mg/kg, 10 minutes after administration, vs normal mice administered saline): significant increase in amount of locomotion; prepulse inhibition deficit (normal mice [2]; 10 mg/kg, prepulse stimulation at 77 dB or 81 dB): induced prepulse inhibition deficit
N[C@@]1(c2ccccc2Cl)CCCCC1=O [(R)-norketamine]				did not exhibit an antidepressant effect	did not exhibit an antidepressant effect	did not exhibit the effect of increasing the spine density	not affected	did not restore it		
CN[C@]1(c2ccccc2Cl)CCCCC1=O [(S)-ketamine]	30 min								significantly increase the CPP score	amount of locomotion (hyperlocomotion effect) (normal mice [1]; 10 mg/kg, 10 minutes and 20 minutes after administration, vs normal mice administered saline): significant increase in amount of locomotion; prepulse inhibition deficit (normal mice [2]; 10 mg/kg): induced prepulse inhibition deficit
N[C@]1(c2ccccc2Cl)CCCCC1=O [(S)-norketamine]				significantly reduced immobility time	significantly reduced immobility time	significantly increased the spine density	not affected	significantly restored the sucrose consumption preference	did not increase the CPP score	antidepressant effect in TST compared with (R)-norketamine [5]: significantly higher antidepressant effect than (R)-norketamine; antidepressant effect in FST compared with (R)-norketamine [6]: significantly higher antidepressant effect than (R)-norketamine; amount of locomotion (hyperlocomotion effect) (normal mice [1]; 5, 10, or 20 mg/kg): did not affect the amount of locomotion; prepulse inhibition deficit (normal mice [2]; 5, 10, or 20 mg/kg): did not induce prepulse inhibition deficit
Cc1oc(=O)oc1COC(=O)N[C@]1(c2ccccc2Cl)CCCCC1=O [Compound 1, (5-methyl-2-oxo-1,3-dioxol-4-yl)methyl-(S)-(1-(2-chlorophenyl)-2-oxocyclohexyl) carbamate]										decrease of blood concentration compared with (S)-norketamine derivative (2) [10]: decreased more slowly
NC1(c2ccccc2Cl)CCCCC1=O (centres unmarked) [norketamine]	20 min	significantly reduced immobility time	significantly reduced immobility time							affinity for an NMDA receptor, factor lower than ketamine (NMDA receptor): about 6.8 fold; amount of locomotion (hyperlocomotion effect) (normal mice [1]; 5 mg/kg or 10 mg/kg): did not affect the amount of locomotion; amount of locomotion compared with ketamine (10 mg/kg) (normal mice [1]; 20 mg/kg, 10 minutes after administration): significantly lower than that in the mice administered ketamine (10 mg/kg); amount of locomotion (hyperlocomotion effect) (normal mice [1]; 20 mg/kg, 10 minutes after administration, vs normal mice administered saline): significant increase in amount of locomotion; prepulse inhibition deficit (normal mice [2]; 5 mg/kg or 10 mg/kg): did not induce prepulse inhibition deficit; prepulse inhibition deficit (normal mice [2]; 20 mg/kg, prepulse stimulation at 81 dB): significantly induced prepulse inhibition deficit; antidepressant effect in TST compared with ketamine (LPS-treated mice [3]; [12]): significantly stronger compared to ketamine; immobility time in TST (LPS-treated mice [3]; [13]): dose-dependently reduced immobility time; antidepressant effect in FST compared with ketamine (LPS-treated mice [4]; [12]): significantly stronger compared to ketamine; immobility time in FST (LPS-treated mice [4]; [13]): dose-dependently reduced immobility time
